One block for each compound: values may come before it.
Legend:
[1] = tested on: HeLa (cervical carcinoma) cells; assay: Growth inhibition (GI50), XTT cell viability assay, HeLa; type: cell-based; conditions: Homo sapiens, 72 h, 3 days, read-out: GI50 constants, HeLa
Experimental: (§1) The growth inhibition constants of the compounds were determined in two cancer cell lines: U2OS (osteosarcoma) and HeLa (cervical carcinoma). Cells were maintained in DMEM (HeLa) and a 50-50% mixture of DMEM and F-12 media (U2OS) supplemented with 10% fetal bovine serum. Stock solutions (20 mM) of the tested compounds were prepared in 100% dimethyl-sulfoxide (DMSO). Cells, cultured in 24-well plates, were subjected to a range of concentrations of the compounds ([…]) at 0.25% DMSO. After 3 days, cell viability was assayed using XTT (sodium salt of 2,3-bis[2-Methoxy-4-nitro-5-sulfophenyl]-2H-tetrazolium-5-carboxyanilide inner salt) and PMS (phenazine methosulfate) reagents (Scudiero et al. 1988. Cancer Res. 48, 4827-4833). Stock solutions of XTT (1 mg/ml) and PMS (1.53 mg/ml) were prepared in Hank's buffered saline (HBS). Culture medium in each well was replaced by 100 μl of OptiMEM media (Life technologies) containing 35 μg/ml XTT and 0.27 μg/ml PMS. Cells were returned to the incubator for 15-20 min. Quantity of viable cells in each well was evaluated spectrophotometrically measuring the absorbance of XTT formazan at 470 nm. Each experiment was run in duplicate.

[2] = tested on: U2OS (osteosarcoma) cells; assay: Growth inhibition (GI50), XTT cell viability assay, U2OS; type: cell-based; conditions: Homo sapiens, 72 h, 3 days, read-out: growth inhibition constants (GI50), U2OS
Experimental: as §1

SMILES: COc1ccc(-c2snnc2-c2cc(Cl)c(O)cc2O)cc1 [compound 3a, 4-(5-chloro-2,4-dihydroxyphenyl)-5-(4-methoxyphenyl)-1,2,3-thiadiazole]
GI50 [1]: 2.5 ± 0.1 µM
GI50 [2]: 8.4 ± 1.2 µM

SMILES: COc1ccc(-c2snnc2-c2cc(Cl)c(O)cc2O)cc1OC [compound 3d, 4-(5-chloro-2,4-dihydroxyphenyl)-5-(3,4-dimethoxyphenyl)-1,2,3-thiadiazole]
GI50 [1]: 3.6 ± 0.3 µM
GI50 [2]: 11.5 ± 0.1 µM

More lines, in order of falling GI50 [1], values ahead:

GI50 [1]: 4.2 ± 0.4 µM
GI50 [2]: 15.1 ± 3.4 µM
SMILES: CCOc1ccc(-c2snnc2-c2cc(Cl)c(O)cc2O)cc1 [compound 3b, 4-(5-chloro-2,4-dihydroxyphenyl)-5-(4-ethoxyphenyl)-1,2,3-thiadiazole]

GI50 [1]: 3.3 ± 0.1 µM
GI50 [2]: 7.1 ± 0.1 µM
SMILES: Cc1ccc(-c2snnc2-c2cc(Cl)c(O)cc2O)cc1 [compound 3c, 4-(5-chloro-2,4-dihydroxyphenyl)-5-(4-methylphenyl)-1,2,3-thiadiazole]

GI50 [1]: 0.7 ± 0.04 µM
GI50 [2]: 0.65 ± 0.08 µM
SMILES: CCOc1ccc(-c2snnc2-c2cc(CC)c(O)cc2O)cc1 [compound 3e, 4-(5-ethyl-2,4-dihydroxyphenyl)-5-(4-ethoxyphenyl)-1,2,3-thiadiazole]

From patent US8314132B2, “5-aryl-4-(5-substituted 2,4-dihydroxyphenyl)-1,2,3-thiadiazoles as inhibitors of Hsp90 chaperone and the intermediates for production thereof” (Biotechnologijos Institutas, priority 2008, dated 2012)
